We go through 1 compound from US12099061B2, “Nidogen 1 as a diagnostic marker and therapeutic target of hepatocellular carcinoma, composition and methods thereof” (THE UNIVERSITY OF HONG KONG, priority 2020, dated 2024).

In the assay the test system is MHCC97L cells. The assay is described as follows: EV secretion of MHCC97L cells treated with Tipifarnib. It counts as cell-based, human. The conditions noted are these: 1 μM Tipifarnib for 48 hr; EVs isolated from conditioned medium. Here is the method: FIGS. 11A-11B Reduction of EV secretion attenuates liver tumor formation. (A) Quantification of EVs isolated from conditioned medium of MHCC97L treated with 1 μM Tipifarnib or DMSO vehicle for 48 hr. The analysis was done in triplicate. (B) Image of dissected liver of mice subjected to orthotopic liver injection of Matrigel/MHCC97L (1×10^6 cells/injection) pretreated with 48-hr DMSO or Tipifarnib (1 μM) (n=6). Measurement of tumor volume is shown. Data are represented as mean±SEM. *P<0.05 and ***P<0.001 from Student's t test.
Protein lysates were obtained by cell lysis with NETN lysis buffer (0.1% NP40, 25 mM Tris-HCl, 50 mM […], 0.2 mM EDTA), supplemented with 10% cOmplete™ protease inhibitor cocktail and 10% PhosStop phosphatase inhibitor cocktail (Roche Applied Science). Bradford reagent (Bio-Rad Corporation) using bovine serum albumin as standard concentration was used to quantify protein amount. […] Chemiluminescent signals were detected by ECL™ Western Blotting Detection Reagents (Amersham). […] The level of EV-CD63 was expressed as amount of CD63 over EV protein amount (μg/μg) (w/w). […] The amount of isolated EVs was quantified. […] After 6 weeks post injection, mice were sacrificed and liver tumor volume was measured using a caliper and calculated using the formula: volume=L×W^2×0.5 (L, the largest diameter; W, the smallest diameter). […]

Each structure is given as a SMILES string.

With `Cn1cncc1[C@@](N)(c1ccc(Cl)cc1)c1ccc2c(c1)c(-c1cccc(Cl)c1)cc(=O)n2C` [tipifarnib, Tipifarnib], the “reduction of EV secretion from MHCC97L cells” value was “up to 50%”.
